Laboratory results: the CheMixHub ionic liquid set

Assay: xn = mol fraction of the nth substance listed
Settings: 101 kPa, frequency 2 MHz

O=S(=O)([O-])C(F)(F)F.[Li+] + O=S(=O)([N-]S(=O)(=O)C(F)(F)F)C(F)(F)F.[Li+] + O
electrical conductivity [S/m]
Settings	333 K	338.1 K	343 K	348.1 K	353 K	358.1 K
x2 = 0.001799, x1 = 0.0005943	–	1.57	1.67	1.77	1.86	1.942
x2 = 0.005377, x1 = 0.001799	–	3.913	4.16	4.39	4.601	4.79
x2 = 0.00893, x1 = 0.003054	–	5.77	6.124	6.46	6.76	7.029
x2 = 0.01246, x1 = 0.004127	–	7.28	7.725	8.142	8.518	8.846
x2 = 0.01596, x1 = 0.005377	–	8.517	9.039	9.522	9.96	10.33
x2 = 0.01944, x1 = 0.006623	–	9.534	10.12	10.7	11.13	11.5
x2 = 0.05129, x1 = 0.0177	–	12.8	13.6	14.26	14.9	15.41
x2 = 0.08265, x1 = 0.02921	–	11.3	12	12.6	13.18	13.7
x2 = 0.112, x1 = 0.04029	–	8.943	9.518	10.05	10.5	11
x2 = 0.1395, x1 = 0.05129	–	6.839	7.313	7.76	8.17	8.535
x2 = 0.1654, x1 = 0.06203	–	5.18	5.57	5.943	6.29	6.609
x2 = 0.1898, x1 = 0.07238	–	3.921	4.245	4.56	4.86	5.128
x2 = 0.2128, x1 = 0.08265	–	2.98	3.244	3.507	3.76	4
x2 = 0.2345, x1 = 0.0927	–	2.26	2.48	2.705	2.917	3.118
x2 = 0.2551, x1 = 0.1024	1.539	1.72	1.903	2.08	2.26	2.429
x2 = 0.2745, x1 = 0.112	1.16	1.303	1.45	1.6	1.744	1.88
